Key:
Type in all cases: in vitro ADME
[1] = Assay 2. Stability in Simulated Intestinal Fluid (SIF); details: SIF pH 6.7 with pancreatin, 1 μM, 37° C.
Outline: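 Degradation rates came from LC/MS of acetonitrile-quenched samples drawn at intervals, starting at T0. The medium was freshly made pH 6.7 FaSSIF containing pancreatin, and test compound was present at 1 µM while being shaken at 37 °C.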

[2] = Assay 1. Stability in Simulated Gastric Fluid (SGF); details: SGF pH 1.6 with pepsin, 1 μM, 37° C.
Outline: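 Degradation rate from LC/MS of acetonitrile-quenched aliquots (T0, then regular intervals). Fresh SGF (pH 1.6 NaCl, FaSSIF powder, pepsin 0.1 mg/mL) held compound at 1 μM final, 37° C; 1 mM DMSO stock.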

[3] = Assay 3. In vitro Colonic Material Stability Assay; details: colonic material slurry, anaerobic, 1 or 10 μM

Compound	Assay 2 (SIF) (% @ Remaining 4 hours) [1]	Assay 1 (SGF) (% Remaining @ 1 hour) [2]	Assay 3 (% Remaining at 24 h) [3]
CCCC(=O)O[C@@H]1[C@@H](OC(=O)CCC)[C@H](Oc2ccc(N)cc2C(=O)O)OC[C@H]1OC(=O)CCC [Compound 19, 5-amino-2-[(2S,3R,4S,5R)-3,4,5-tri(butanoyloxy)tetrahydropyran-2-yl]oxy-benzoic acid]	B (25-75% of the tested compound remaining)	C (>75% of the tested compound remaining)	B (25-75% of the tested compound remaining)
C[C@@H]1OC(O)[C@@H](OC(=O)CCc2c[nH]c3ccccc23)[C@H](OC(=O)CCc2c[nH]c3ccccc23)[C@@H]1OC(=O)CCc1c[nH]c2ccccc12 (stereo partly drawn) [Compound 62, (2S,3R,4R,5S)-6-hydroxy-4,5-bis({[3-(1H-indol-3-yl)propanoyl]oxy})-2-methyloxan-3-yl 3-(1H-indol-3-yl)propanoate]	A (<25% of the tested compound remaining)	C (>75% of the tested compound remaining)	C (>75% of the tested compound remaining)
CCCC(=O)O[C@@H]1[C@@H](OC(=O)CCC)[C@@H](OC)OC[C@@H]1OC(=O)CCC [Compound 52, (2S,3R,4S,5S)-3,5-bis(butanoyloxy)-2-methoxyoxan-4-yl butanoate]	B (25-75% of the tested compound remaining)	B (25-75% of the tested compound remaining)	B (25-75% of the tested compound remaining)
CCC(=O)O[C@@H]1[C@@H](OC(=O)CC)[C@H](OC(=O)Cc2c[nH]c3ccccc23)OC[C@@H]1OC(=O)CC [Compound 103, (3S,4S,5R,6S)-6-{[2-(1H-indol-3-yl)acetyl]oxy}-4,5-bis(propanoyloxy)oxan-3-yl propanoate]	A (<25% of the tested compound remaining)	C (>75% of the tested compound remaining)	A (<25% of the tested compound remaining)
CCCC(=O)Oc1cc(OC(=O)CCC)c2c(c1)O[C@H](c1ccc(OC(=O)CCC)c(OC(=O)CCC)c1)[C@H](OC(=O)CCC)C2 [Compound 193, (2R,3R)-2-[3,4-bis(butanoyloxy)phenyl]-5,7-bis(butanoyloxy)-3,4-dihydro-2H-1-benzopyran-3-yl butanoate]	A (<25% of the tested compound remaining)	C (>75% of the tested compound remaining)	A (<25% of the tested compound remaining)
CCC(=O)O[C@@H]1[C@@H](OC(=O)CC)[C@H](C)O[C@@H](OC(=O)/C=C/c2c[nH]c3ccccc23)[C@@H]1OC(=O)CC [Compound 102, (2S,3R,4R,5S,6S)-6-methyl-3,4,5-tris(propanoyloxy)oxan-2-yl (2E)-3-(1H-indol-3-yl)prop-2-enoate]	B (25-75% of the tested compound remaining)	C (>75% of the tested compound remaining)	A (<25% of the tested compound remaining)
CCC(=O)O[C@@H]1[C@@H](OC(=O)CC)[C@@H](OC)OC[C@H]1OC(=O)CC [Compound 72, (2S,3R,4S,5R)-2-methoxy-4,5-bis(propanoyloxy)oxan-3-yl propanoate]	B (25-75% of the tested compound remaining)	C (>75% of the tested compound remaining)	A (<25% of the tested compound remaining)
CCC(=O)O[C@@H]1[C@H](OC)OC[C@@H](OC(=O)CC)[C@H]1OC(=O)CC [Compound 68, (2R,3S,4R,5R)-2-methoxy-3,5-bis(propanoyloxy)oxan-4-yl propanoate]	A (<25% of the tested compound remaining)	C (>75% of the tested compound remaining)	B (25-75% of the tested compound remaining)
CCCC(=O)O[C@@H]1[C@@H](OC(=O)CCC)[C@H](C)O[C@@H](Oc2ccccc2C(=O)O)[C@@H]1OC(=O)CCC [Compound 40, 2-(((2S,3R,4R,5S,6S)-3,4,5-tris(butyryloxy)-6-methyltetrahydro-2H-pyran-2-yl)oxy)benzoic acid]	C (>75% of the tested compound remaining)	C (>75% of the tested compound remaining)	C (>75% of the tested compound remaining)
CCC(=O)OC[C@H]1O[C@H](OC(=O)Cc2c[nH]c3ccccc23)[C@H](OC(=O)CC)[C@@H](OC(=O)CC)[C@@H]1OC(=O)CC [Compound 114, [(2R,3R,4S,5R,6R)-6-{[2-(1H-indol-3-yl)acetyl]oxy}-3,4,5-tris(propanoyloxy)oxan-2-yl]methyl propanoate]	A (<25% of the tested compound remaining)	C (>75% of the tested compound remaining)	A (<25% of the tested compound remaining)
CCC(=O)Oc1cc(OC(=O)CC)c2c(=O)c(O)c(-c3ccc(OC(=O)CC)c(OC(=O)CC)c3)oc2c1 [Compound 165, 2-[3,4-bis(propanoyloxy)phenyl]-3-hydroxy-4-oxo-7-(propanoyloxy)-4H-chromen-5-yl propanoate]	A (<25% of the tested compound remaining)	B (25-75% of the tested compound remaining)	A (<25% of the tested compound remaining)
CCCC(=O)OC[C@H]1O[C@@H](OC(=O)CCc2c[nH]c3ccccc23)[C@H](OC(=O)CCC)[C@@H](OC(=O)CCC)[C@@H]1OC(=O)CCC [Compound 85, [(2R,3R,4S,5R,6S)-3,4,5-tris(butanoyloxy)-6-{[3-(1H-indol-3-yl)propanoyl]oxy}oxan-2-yl]methyl butanoate]	A (<25% of the tested compound remaining)	B (25-75% of the tested compound remaining)	A (<25% of the tested compound remaining)
CCC(=O)O[C@@H]1[C@@H](OC(=O)CC)[C@H](C)O[C@H](OC(=O)/C=C/c2c[nH]c3ccccc23)[C@@H]1OC(=O)CC [Compound 107, (2R,3R,4R,5S,6S)-6-methyl-3,4,5-tris(propanoyloxy)oxan-2-yl (2E)-3-(1H-indol-3-yl)prop-2-enoate]	A (<25% of the tested compound remaining)	B (25-75% of the tested compound remaining)	B (25-75% of the tested compound remaining)
CO[C@H]1O[C@H](COC(C)=O)[C@@H](OC(C)=O)[C@H](OC(C)=O)[C@@H]1OC(C)=O [Compound 161, (2R,3R,4S,5S,6S)-2-(acetoxymethyl)-6-methoxytetrahydro-2H-pyran-3,4,5-triyl triacetate]	C (>75% of the tested compound remaining)	C (>75% of the tested compound remaining)	B (25-75% of the tested compound remaining)
CCC(=O)O[C@H]1[C@H](OC(=O)Cc2c[nH]c3ccccc23)OC[C@@H](OC(=O)CC)[C@H]1OC(=O)CC [Compound 106, (2S,3R,4R,5R)-2-{[2-(1H-indol-3-yl)acetyl]oxy}-4,5-bis(propanoyloxy)oxan-3-yl propanoate]	A (<25% of the tested compound remaining)	C (>75% of the tested compound remaining)	A (<25% of the tested compound remaining)
CCCC(=O)O[C@@H]1[C@@H](OC(=O)CCC)[C@@H](Oc2ccc(N)cc2C(=O)O)OC[C@@H]1OC(=O)CCC [Compound 22, 5-amino-2-[(2R,3R,4S,5S)-3,4,5-tri(butanoyloxy)tetrahydropyran-2-yl]oxy-benzoic acid]	B (25-75% of the tested compound remaining)	C (>75% of the tested compound remaining)	B (25-75% of the tested compound remaining)
CCCC(=O)Oc1ccc(-c2oc3cc(OC(=O)CCC)cc(OC(=O)CCC)c3c(=O)c2OC(=O)CCC)cc1 [Compound 166, 4-[3,5,7-tris(butanoyloxy)-4-oxo-4H-chromen-2-yl]phenyl butanoate]	A (<25% of the tested compound remaining)	B (25-75% of the tested compound remaining)	A (<25% of the tested compound remaining)
CCC(=O)O[C@@H]1OC[C@@H](OC(=O)CC)[C@@H](OC(=O)CC)[C@H]1OC(=O)CC [Compound 104, (2S,3R,4R,5R)-3,4,5-tris(propanoyloxy)oxan-2-yl propanoate]	A (<25% of the tested compound remaining)	C (>75% of the tested compound remaining)	A (<25% of the tested compound remaining)
O=C(CCc1c[nH]c2ccccc12)O[C@@H]1OC[C@@H](OC(=O)CCc2c[nH]c3ccccc23)[C@@H](OC(=O)CCc2c[nH]c3ccccc23)[C@H]1OC(=O)CCc1c[nH]c2ccccc12 [Compound 80, (2S,3R,4R,5R)-3,4,5-tris({[3-(1H-indol-3-yl)propanoyl]oxy})oxan-2-yl 3-(1H-indol-3-yl)propanoate]	A (<25% of the tested compound remaining)	C (>75% of the tested compound remaining)	A (<25% of the tested compound remaining)

From patent US12115178B2, “Acylated active agents and methods of their use for the treatment of autoimmune disorders” (Flagship Pioneering Innovations V, Inc., priority 2018, dated 2024)
